Values of other authors, collected in paper PMC11921695 (BMC Cancer, 2025).

Tested on: embryofoetal development and survival
Set-up: method as in SCART protocol 7.3.1
Conditions: at dose levels that do not induce maternal toxicity in mice; ref SCART protocol 7.3.1; cited from earlier work

Cn1cnc2c(F)c(Nc3ccc(Br)cc3Cl)c(C(=O)NOCCO)cc21 [selumetinib, 6-(4-Bromo-2-chloro-phenylamino)-7-fluro-3-methyl-3 H-benzoimidazole-5-carboxylic acid (2-hydroxy-ethoxy)-amide hydrogen sulphate]
reproductive toxicology finding: adverse effects on embryofoetal
